One assay deals with Pseudomonas fluorescens. As to the kind of experiment: Minimum inhibitory concentration and synergism (Kull synergistic index) of OPP/AMINE 1 combinations. Type of assay: cell-based. Conditions: compound applied on its own (QA/QB). The source says:
The observed synergism of the mixtures according to the invention can be determined by the following mathematical approach (cf. F. C. Kull, P. C. Elisman, H. D. Sylwestrowicz and P. K. Mayer, Appl. Microbiol, 9, 538 (1961):
[formula] where • Qa=the amount of component A in the active compound mixture required to achieve the desired effect, i.e. no microbial growth, • QA=the amount of component A which, applied on its own, suppresses the growth of the microorganisms, • Qb=the amount of component B in the active compound mixture which suppresses the growth of the microorganisms, • Qb=the amount of component B which, applied on its own, suppresses the growth of the microorganisms.
A synergistic index of SI<1, in accordance with the above formula, indicates a synergistic effect for the active compound mixture.
The minimum inhibitory concentration of the active compound combinations listed in Table 1 were examined using the test germ Pseudomonas fluorescens

In assay [1] the test system is microorganism mixture: Pseudomonas aeruginosa, Pseudomonas fluorescens, Pseudomonas oleovorans, Pseudomonas rubescens, Pseudomonas stutzeri, Alcalaigenes …. As to the kind of experiment: Microbiological preservation stress test in a chalk suspension. As to conditions: 60° C. for 3 days before test, weekly contamination. Type of assay: cell-based. The source says:
The preserving action of an active compound mixture according to the invention was examined in a chalk suspension using a preservation stress test.
The microbiological stress test examines the susceptibility of water-based systems to microbial attack and the action of preservatives. To this end, the preservatives are incorporated in defined concentrations into the water-based systems. To simulate praxis-like conditions, depending on the medium to be examined, a storage at elevated temperatures (for example 7 days at 40° C., 3 days at 60° C. or the like) may be carried out prior to the actual preservation test to evaluate the preservatives to be examined under conditions which are as realistic as possible. After the preparations have been carried out, contamination with microorganisms of a defined species is carried out at weekly intervals over a test period of at most 6 weeks. 2-3 and 7 days after each contamination, by counting the number of germs, it is established whether a complete kill or at least inhibition of propagation of the bacteria introduced has been achieved, compared to the unpreserved control samples.
The contamination source used for the examination in the stress test was the following microorganism mixture:
Very good activity is achieved when, even after 6 contamination cycles, the reserved samples effect a kill of the microorganisms introduced.
Using a chalk suspension (proportion of solids 70-75%), a preservation stress test according to the above scheme was carried out. After incorporation of the respective biocidally active compounds at the stated concentrations, the samples were exposed to thermal stress at 60° C. for 3 days. The samples pre-treated in this manner were then used for carrying out the microbiological stress test.

On to `Oc1ccccc1-c1ccccc1` [OPP, o-phenylphenol], for which, in the assay with Pseudomonas fluorescens, the “Amount of pure active compounds required to suppress growth” value was 500 (=QA) ppm. In assay [1] (150 ppm), the “Week 1” value is reported as “ok”, the “Week 2” value is “spoilt”, the “Week 3” value is recorded as “spoilt” and the “Week 4” value is given as “spoilt”. In assay [1] (150 ppm), the “Week 5” value is “spoilt” and the “Week 6” value was “spoilt”. In assay [1] (200 ppm), the “Week 1” value is given as “ok”, the “Week 2” value is “ok”, the “Week 3” value is “ok” and the “Week 4” value is “ok”. For the same compound, in assay [1] (200 ppm), the “Week 5” value is listed as “spoilt” and the “Week 6” value is “spoilt”.

Turning to `CCCCCCCCCCCCN(CCCN)CCCN` [“AMINE 1”, bis(3-aminopropyl)dodecylamine], the “Amount of pure active compounds required to suppress growth” value in the assay on Pseudomonas fluorescens is on record as 50 (=QB) ppm. For the same compound, in assay [1] (80 ppm), the “Week 1” value is on record as “ok”, the “Week 2” value was “spoilt”, the “Week 3” value is reported as “spoilt” and the “Week 4” value is reported as “spoilt”. In assay [1] (80 ppm), the “Week 5” value is “spoilt” and the “Week 6” value is “spoilt”. Moreover, in assay [1] (160 ppm), the “Week 1” value is “ok”, the “Week 2” value is “ok”, the “Week 3” value is on record as “ok” and the “Week 4” value is on record as “spoilt”. For the same compound, in assay [1] (160 ppm), the “Week 5” value was “spoilt” and the “Week 6” value is reported as “spoilt”.

(Values after patent US9119395B2, “Active substance mixtures comprising OPP and amines, microbicidal agents” (LANXESS Deutschland GmbH, priority 2005, dated 2015).)
